Data on 8 compounds can be found in ChEMBL document CHEMBL1201862, “PubChem BioAssay data set” (2004).

The structures appear in SMILES notation.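 In this assay, cells in 96-well plates receive the compound at five concentrations for 48 hours. Endpoints are linearly interpolated between the surrounding concentrations. Here, GI50 denotes the concentration required for 50% inhibition of growth.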 The source made the active and inactive calls. No stated cut-off is given here; in the data, active = GI50 up to about 1.1 µM and inactive = higher.

Test systems include SK-MEL-2; NCI-H460; HCT-116; NCI-H23; EKVX; OVCAR-3; HOP-62; CAKI-1; HCT-15; U-251; OVCAR-4; TK-10; CCRF-CEM; SNB-75; SW-620; UO-31; UACC-257; RXF 393; Malme-3M; HCC 2998.
Holding throughout (assay): NCI-60 cell line screen, 48 h

`NC(CSC1(c2ccc(Cl)cc2)c2ccccc2-c2ccccc21)C(=O)O` (centres undefined): the GI50 was 20.9 µM (inactive) in the test on SK-MEL-2; 18.1 µM (inactive) in the test with NCI-H460; 16.6 µM (inactive) in the test on HCT-116; 19.1 µM (inactive) in the test with NCI-H23; 67.1 µM (inactive) with EKVX; 17.4 µM (inactive) in the test with OVCAR-3. Besides, the GI50 in the test with HOP-62 was 18.7 µM (inactive); in the test with CAKI-1, 33.5 µM (inactive); in the test on HCT-15 it was 21.6 µM; in the test with U-251 it was 15.8 µM (inactive); with OVCAR-4 it was 22.2 µM (inactive); in the test on TK-10, 24.8 µM (inactive). Further, the GI50 was 29.1 µM (inactive) in the test on CCRF-CEM; 22.2 µM (inactive) with SNB-75; 42.6 µM (inactive) in the test on SW-620; 28.7 µM (inactive) with UO-31; 15.9 µM (inactive) in the test on UACC-257; 31.6 µM (inactive) with RXF 393. In addition, the GI50 in the test on Malme-3M is 19.6 µM (inactive).
In the case of `CC(C)(C)OC(=O)NC1CCC(C(C)(C)C)CC1` (centres undefined), the GI50 with SK-MEL-2 is 23.3 µM (inactive); in the test on NCI-H460, > 77.3 µM (inactive); in the test with HCT-116, 43.1 µM (inactive); in the test on NCI-H23 it was > 83 µM (inactive); with EKVX it was > 64.1 µM (inactive); in the test with OVCAR-3 it was 58.6 µM (inactive). In addition, the GI50 with HOP-62 is > 91 µM (inactive); in the test with HCT-15 it was over 79.6 µM; in the test with U-251, 38.4 µM (inactive); in the test with OVCAR-4, > 74.3 µM (inactive); in the test with CCRF-CEM, 36.1 µM (inactive); with SNB-75, 40.7 µM (inactive). In addition, the GI50 was > 64.3 µM (inactive) with SW-620; 59.2 µM (inactive) in the test on UO-31; 19.5 µM (inactive) with UACC-257; 31.3 µM (inactive) with RXF 393; 33.2 µM (inactive) with Malme-3M; > 87.1 µM (inactive) with HCC 2998.
For `CO[C@H]1ON=C(c2c(C)cc(C)cc2C)[C@@H]1C1(c2ccccc2)ON=C(c2c(C)cc(C)cc2C)O1` (some centres undefined), the GI50 was > 100 µM (inactive) with SK-MEL-2; > 100 µM (inactive) in the test on NCI-H460; > 100 µM (inactive) in the test on HCT-116; > 100 µM (inactive) with NCI-H23; > 100 µM (inactive) with EKVX; over 10 µM in the test on HCT-15. Besides, the GI50 in the test with U-251, in the test on TK-10, in the test on CCRF-CEM, with SW-620, in the test with UO-31 and with UACC-257 was > 100 µM (inactive) throughout. Moreover, the GI50 in the test on RXF 393, in the test on Malme-3M and in the test with HCC 2998 was > 100 µM (inactive) in each case.
Consider `CC1(C)CC[C@]2(C(=O)O)CC[C@]3(C)C(=CC[C@@H]4[C@@]5(C)CC[C@@H]6OC(C)(C)OC[C@@]6(C)[C@@H]5CC[C@]43C)[C@H]2C1`, for which the GI50 with SK-MEL-2 was 17.3 µM (inactive); in the test with NCI-H460, 5.46 µM (inactive); with HCT-116, 5.33 µM (inactive); in the test with NCI-H23, 3.91 µM (inactive); in the test on EKVX, 5.08 µM (inactive); with OVCAR-3 it was 4.54 µM (inactive). Besides, the GI50 in the test on HOP-62 was 10.1 µM (inactive); in the test on CAKI-1 it was 9.91 µM (inactive); in the test on HCT-15, 2.87 µM; in the test on U-251 it was 5.89 µM (inactive); in the test with OVCAR-4 it was 3.05 µM (inactive); in the test with TK-10 it was 11.6 µM (inactive). The GI50 in the test on CCRF-CEM is 15.4 µM (inactive); in the test with SNB-75, 11 µM (inactive); in the test with SW-620, 14.5 µM (inactive); with UO-31, 12.1 µM (inactive); in the test with UACC-257, 13.2 µM (inactive); in the test on Malme-3M, 12.6 µM (inactive). Moreover, the GI50 in the test on HCC 2998 is 13.2 µM (inactive).
For `C=CCNC(=O)CN(CC(=O)OC)C1CCCCC1N(CC(=O)OC)CC(=O)OC` (centres undefined), the GI50 in the test with SK-MEL-2, in the test with NCI-H460, with HCT-116, with NCI-H23, in the test with EKVX and in the test on OVCAR-3 was > 100 µM (inactive) throughout. The GI50 with HOP-62 is > 100 µM (inactive); in the test with CAKI-1, > 100 µM (inactive); with HCT-15, over 100 µM; with U-251, > 100 µM (inactive); in the test on TK-10, > 100 µM (inactive); in the test on CCRF-CEM it was > 100 µM (inactive). Besides, the GI50 in the test with SW-620 is > 100 µM (inactive); in the test with UO-31, > 100 µM (inactive); in the test with UACC-257, > 100 µM (inactive); with RXF 393, > 100 µM (inactive); with Malme-3M it was > 100 µM (inactive); in the test on HCC 2998, 70 µM (inactive).
With `O=C1C(Cl)N(c2ccccc2Cl)C1c1c[nH]c2ccccc12` (centres undefined), the GI50 with SK-MEL-2, with NCI-H460, with HCT-116, with NCI-H23, in the test with EKVX and with OVCAR-3 was > 100 µM (inactive) in each case. The GI50 in the test with HOP-62 is > 100 µM (inactive); with U-251, > 100 µM (inactive); in the test on OVCAR-4 it was > 100 µM (inactive); in the test with TK-10, > 100 µM (inactive); with CCRF-CEM it was > 100 µM (inactive); in the test on SNB-75, 86.9 µM (inactive). Besides, the GI50 in the test on SW-620, in the test with UO-31, in the test with UACC-257, in the test on RXF 393 and in the test on Malme-3M was > 100 µM (inactive) throughout.
Consider `CNC(=O)N(C)COC`, for which the GI50 was > 100 µM (inactive) in the test with SK-MEL-2; > 100 µM (inactive) in the test with NCI-H460; > 100 µM (inactive) in the test on HCT-116; > 100 µM (inactive) with EKVX; 32.3 µM (inactive) in the test with OVCAR-3; > 100 µM (inactive) in the test with HOP-62. Also, the GI50 is > 100 µM (inactive) in the test on CAKI-1; over 100 µM in the test on HCT-15; > 100 µM (inactive) in the test on U-251; > 100 µM (inactive) in the test with OVCAR-4; > 100 µM (inactive) with CCRF-CEM; > 100 µM (inactive) in the test with SNB-75. Moreover, the GI50 with SW-620, with UO-31, with UACC-257, in the test on Malme-3M and with HCC 2998 was > 100 µM (inactive) each time.
For `C=C(/C=C/C=C(\C)CCC=C(C)C)[C@@H]1CC[C@]2([C@H](CCCO)/C(=C(/C)C=O)CC[C@]2(C)O)[C@@H]1O`, the GI50 in the test with SK-MEL-2 was 20.2 µM (inactive); in the test on NCI-H460, 9.71 µM (inactive); in the test on NCI-H23 it was 19.5 µM (inactive); in the test with EKVX, 22.4 µM (inactive); in the test on CAKI-1, 28 µM (inactive); with HCT-15, 19.4 µM. The GI50 in the test with U-251 is 14.9 µM (inactive); in the test with TK-10 it was 31.3 µM (inactive); in the test on CCRF-CEM, 15.8 µM (inactive); in the test with SNB-75, 91.6 µM (inactive); in the test with SW-620, 16.3 µM (inactive); in the test with UO-31, 19.5 µM (inactive). Besides, the GI50 was 22.6 µM (inactive) in the test on UACC-257, 22.6 µM (inactive) in the test on RXF 393, 11.8 µM (inactive) in the test on Malme-3M and 20.9 µM (inactive) in the test on HCC 2998.
